Read-outs that look alike come from different tables or passages of the source.
Key:
[1] = tested on: Mycobacterium avium-intracellulare complex; assay: radiometric assay (14CO2 release from 14C palmitic acid in 7H12 medium, BACTEC 460), percent microorganism killed; assay type: cell-based; details: for killing at 16 µg/mL: Mycobacterium avium-intracellulare, 168 h, read-out: Percent Microorganism Killed One Week Post
[2] = tested on: Mycobacterium avium-intracellulare complex; assay: minimal inhibitory concentration by the standard T100 growth inhibition method; assay type: cell-based
Protocol: The activity of trimetrexate at several concentrations ranging from 2 to 64 micrograms/ml was tested against fifteen strains of Mycobacterium avium-intracellulare isolated from AIDS patients who were also suffering from infections of the MAI complex. Drug activity was measured using both a radiometric assay and growth inhibition analysis by the T100 method. (S.H. Siddiqi et al., J. Clin. Microbiol., 22: 919-923 (1985); S.H. Siddiqi et al., J. Clin. Microbiol., 13: 908-912 (1981); and D.E. Snyder et al., Am. Rev. Respir. Dis., 123: 402-406 (1981).
In a second test, the minimal inhibitory concentration (MIC) required to inhibit 99% and 99.9% growth of the test strains of the Mycobacterium avium-intracellulare complex was determined employing the standard T100 method. The results appear in Table II where the MIC value is given for each of the tested MAI complex strains.

[3] = MAI Complex Strain 109, trimetrexate 16 µg/ml

COc1cc(NCc2ccc3nc(N)nc(N)c3c2C)cc(OC)c1OC [trimetrexate, 5-methyl-6-{[(3,4,5-trimethoxyphenyl)amino]methyl}-2-4-quinazolinediamine]
70%: killing at 16 µg/mL ([1]; MAI Complex Strain 108, trimetrexate 16 µg/ml)
2 µg/mL: MIC ([2]; MAI Complex Strain 100, 99% growth inhibition, read-out: Approximate Minimal Inhibitory Concentration (MIC) 99%) | MIC ([2]; MAI Complex Strain 100, 99.9% growth inhibition, read-out: Approximate Minimal Inhibitory Concentration (MIC) 99.9%) | MIC ([2]; MAI Complex Strain 103, 99% growth inhibition, read-out: Approximate Minimal Inhibitory Concentration (MIC) 99%) | MIC ([2]; MAI Complex Strain 103, 99.9% growth inhibition, read-out: Approximate Minimal Inhibitory Concentration (MIC) 99.9%) | MIC ([2]; MAI Complex Strain 104, 99% growth inhibition, read-out: Approximate Minimal Inhibitory Concentration (MIC) 99%) | MIC ([2]; MAI Complex Strain 104, 99.9% growth inhibition, read-out: Approximate Minimal Inhibitory Concentration (MIC) 99.9%) | MIC ([2]; MAI Complex Strain 105, 99% growth inhibition, read-out: Approximate Minimal Inhibitory Concentration (MIC) 99%) | MIC ([2]; MAI Complex Strain 105, 99.9% growth inhibition, read-out: Approximate Minimal Inhibitory Concentration (MIC) 99.9%) | MIC ([2]; MAI Complex Strain 107, 99% growth inhibition, read-out: Approximate Minimal Inhibitory Concentration (MIC) 99%) | MIC ([2]; MAI Complex Strain 107, 99.9% growth inhibition, read-out: Approximate Minimal Inhibitory Concentration (MIC) 99.9%) | MIC ([2]; MAI Complex Strain 108, 99% growth inhibition, read-out: Approximate Minimal Inhibitory Concentration (MIC) 99%) | MIC ([2]; MAI Complex Strain 108, 99.9% growth inhibition, read-out: Approximate Minimal Inhibitory Concentration (MIC) 99.9%) | MIC ([2]; MAI Complex Strain 109, 99% growth inhibition, read-out: Approximate Minimal Inhibitory Concentration (MIC) 99%) | MIC ([2]; MAI Complex Strain 109, 99.9% growth inhibition, read-out: Approximate Minimal Inhibitory Concentration (MIC) 99.9%) | MIC ([2]; MAI Complex Strain 110, 99% growth inhibition, read-out: Approximate Minimal Inhibitory Concentration (MIC) 99%) | MIC ([2]; MAI Complex Strain 110, 99.9% growth inhibition, read-out: Approximate Minimal Inhibitory Concentration (MIC) 99.9%) | MIC ([2]; MAI Complex Strain 111, 99% growth inhibition, read-out: Approximate Minimal Inhibitory Concentration (MIC) 99%) | MIC ([2]; MAI Complex Strain 111, 99.9% growth inhibition, read-out: Approximate Minimal Inhibitory Concentration (MIC) 99.9%) | MIC ([2]; MAI Complex Strain 113, 99% growth inhibition, read-out: Approximate Minimal Inhibitory Concentration (MIC) 99%) | MIC ([2]; MAI Complex Strain 113, 99.9% growth inhibition, read-out: Approximate Minimal Inhibitory Concentration (MIC) 99.9%) | MIC ([2]; MAI Complex Strain 116, 99% growth inhibition, read-out: Approximate Minimal Inhibitory Concentration (MIC) 99%) | MIC ([2]; MAI Complex Strain 116, 99.9% growth inhibition, read-out: Approximate Minimal Inhibitory Concentration (MIC) 99.9%) | MIC ([2]; MAI Complex Strain 117, 99% growth inhibition, read-out: Approximate Minimal Inhibitory Concentration (MIC) 99%) | MIC ([2]; MAI Complex Strain 117, 99.9% growth inhibition, read-out: Approximate Minimal Inhibitory Concentration (MIC) 99.9%) | MIC ([2]; MAI Complex Strain 128, 99% growth inhibition, read-out: Approximate Minimal Inhibitory Concentration (MIC) 99%) | MIC ([2]; MAI Complex Strain 128, 99.9% growth inhibition, read-out: Approximate Minimal Inhibitory Concentration (MIC) 99.9%)
42%: Percent Microorganism Killed One Week Post [1, 3] | killing at 16 µg/mL [1, 3]
68%: killing at 16 µg/mL ([1]; MAI Complex Strain 101, trimetrexate 16 µg/ml)
≤ 8 µg/mL: MIC ([2]; every strain of the MAI complex tested (summary of Table II), read-out: concentration exhibiting inhibitory activity)
potent bactericidal activity: bactericidal activity ([1]; all strains of the MAI complex tested, trimetrexate 16 µg/ml alone)
4 µg/mL: MIC ([2]; MAI Complex Strain 101, 99% growth inhibition, read-out: Approximate Minimal Inhibitory Concentration (MIC) 99%) | MIC ([2]; MAI Complex Strain 101, 99.9% growth inhibition, read-out: Approximate Minimal Inhibitory Concentration (MIC) 99.9%)
91%: killing at 16 µg/mL ([1]; MAI Complex Strain 116, trimetrexate 16 µg/ml)
65%: killing at 16 µg/mL ([1]; MAI Complex Strain 100, trimetrexate 16 µg/ml)
8 µg/mL: MIC ([2]; MAI Complex Strain 102, 99% growth inhibition, read-out: Approximate Minimal Inhibitory Concentration (MIC) 99%) | MIC ([2]; MAI Complex Strain 102, 99.9% growth inhibition, read-out: Approximate Minimal Inhibitory Concentration (MIC) 99.9%)
